± gives the expanded uncertainty stated by the source.
Conditions: Adiabatic calorimetry

## CCOS(=O)(=O)[O-].CCn1cc[n+](C)c1 [1-ethyl-3-methylimidazolium ethyl sulfate]
  Glass transition temperature: -80.30 ± 0.05 °C

Reference: the NIST ThermoML archive (doi:10.1016/j.tca.2006.04.022)
